The conditions of data set [1]: cited from earlier work.
Data set [2] has as its system APP processing. The following applies: cited from earlier work.
The target of data set [3] is T1, ratM1 (Rattus norvegicus, UniProt P08482).
T1 construct: expressed in transfected cells; host or cells: CHO cells (stated generally for the assay, not specifically for rat M1)
T1 sequence (P08482 1-460): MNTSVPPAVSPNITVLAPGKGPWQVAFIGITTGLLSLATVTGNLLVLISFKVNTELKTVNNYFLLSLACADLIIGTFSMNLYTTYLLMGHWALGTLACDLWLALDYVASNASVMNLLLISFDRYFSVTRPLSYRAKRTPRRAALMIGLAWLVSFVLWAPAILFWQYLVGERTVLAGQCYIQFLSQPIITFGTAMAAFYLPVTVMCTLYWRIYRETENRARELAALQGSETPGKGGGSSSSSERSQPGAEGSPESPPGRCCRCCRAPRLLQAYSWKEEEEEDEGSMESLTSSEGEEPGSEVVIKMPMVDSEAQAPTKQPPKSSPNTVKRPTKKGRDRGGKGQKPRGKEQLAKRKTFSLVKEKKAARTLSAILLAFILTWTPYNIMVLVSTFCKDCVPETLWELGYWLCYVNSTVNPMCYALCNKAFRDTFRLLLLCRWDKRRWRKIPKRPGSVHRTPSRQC
The experiment in a line: M1 PAM assay (FLIPR intracellular calcium), rat M1. The class given is cell-based. The following applies: rat M1, FLIPR Ca2+; second value of the cell; read-out: ratM1 EC50.

Data set [4] has as its target T2, human M1 (Homo sapiens, UniProt P11229).
T2 construct: expressed in transfected cells; host or cells: CHO cells
T2 sequence (P11229 1-460): T1 sequence (P08482 1-460) with V5A, S254T, S309P, K320R, G337A, V413I
As to the kind of experiment: M1 PAM assay (FLIPR intracellular calcium), human M1. Format: cell-based. The following applies: CHO human M1 cells, FLIPR Ca2+, with EC20 of acetylcholine; first value of the cell; read-out: hM1 EC50. Summed up:
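CHO cells expressing M1, Fluo-4AM-loaded, in HEPES/probenecid HBSS pH 7.4, 1% DMSO final. Compounds pre-incubated 2 min for agonist activity versus 30 nM acetylcholine control. For PAM activity, acetylcholine EC20 added after the 2 min pre-incubation, then 2 min more before FLIPR intracellular Ca2+ read.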
For orientation: Calcium flux is commonly read through the fluorescence of an indicator in the cells.

Positions count from the first letter of the chain named.

The term EC50 denotes the concentration giving half of the maximal effect.

As for `CCCCCCOc1nsnc1C1=CCCN(C)C1` [Xanomeline], the “cognitive scores and psychotic-like behaviors in patients with Alzheimer's disease” value in data set [1] (clinical studies, patients with Alzheimer's disease (AD)) is “improved cognitive scores and reduced psychotic-like behaviors”. Moreover, the “efficacy on symptoms in schizophrenic patients” value in data set [1] (clinical studies, schizophrenic patients) was “robust efficacy on positive, negative and cognitive symptoms”. In addition, in data set [1] (clinical, attributed to insufficient M1 subtype selectivity), the “adverse effects (sweating, salivation, gastrointestinal distress, bradycardia)” value was “always associated with adverse effects”.

As to `Cc1cc(NC(=O)CS(=O)(=O)c2cn(Cc3cc(Br)ccc3F)c3ccccc23)no1` [ML169], in data set [2], the “non-amyloidogenic APP processing” value is reported as “promote non-amyloidogenic APP processing”.

For `Cn1cc(-c2ccc(Cn3nc(C(=O)N[C@H]4CCOC[C@@H]4O)c4c(F)cccc43)c(F)c2)cn1` (racemic) [Example 7, 4-fluoro-1-(2-fluoro-4-(1-methyl-1H-pyrazol-4-yl)benzyl)-N-((3RS,4SR)-3-hydroxytetrahydro-2H-pyran-4-yl)-1H-indazole-3-carboxamide], the EC50 in data set [3] was 147 nM; in data set [4], 70 nM.

Turning to `CNC(=O)c1ccc(Cn2cc(CC(=O)N[C@H]3CCOC[C@@H]3O)c3c(F)cccc32)cc1` [Example 98, 4-((4-fluoro-3-(2-((3R,4S)-3-hydroxytetrahydro-2H-pyran-4-ylamino)-2-oxoethyl)-1H-indol-1-yl)methyl)-N-methylbenzamide], the EC50 in data set [3] is 134 nM; in data set [4] it was 32 nM.

For the molecule `CNC(=O)c1ccc(Cn2cc(C(=O)NC3CCOCC3)c3c(F)cccc32)cc1` [Example 132, 4-fluoro-1-(4-(methylcarbamoyl)benzyl)-N-(tetrahydro-2H-pyran-4-yl)-1H-indole-3-carboxamide], the results for the EC50 in data set [3] and in data set [4] were 22 nM and 3 nM, respectively.

For `O=C(N[C@H]1CCOC[C@@H]1O)c1cn(Cc2ccc(-n3cncn3)nc2)c2cccc(F)c12` [Example 78, 1-((6-(1H-1,2,4-triazol-1-yl)yridine-3-yl)methyl)-4-fluoro-N-((3R,4S)-3-hydroxytetrahydro-2H-pyran-4-yl)-1H-indole-3-carboxamide], the EC50 in data set [3] came to 728 nM; in data set [4] it was 522 nM.

With `Cn1cc(-c2ccc(Cn3cc(C(=O)N[C@H]4CCOC[C@@H]4O)c4c(F)cccc43)cc2)cn1` (single isomer, unassigned) [Example 55, 4-fluoro-N-((3R,4S) or (3S,4R)-3-hydroxytetrahydro-2H-pyran-4-yl)-1-(4-(1-methyl-1H-pyrazol-4-yl)benzyl)-1H-indole-3-carboxamide], the EC50 in data set [3] came to 2.82 nM; in data set [4], 2.11 nM.

For `CNC(=O)c1ccc(Cn2cc(C(=O)NC3CCCC3)c3c(F)cccc32)cc1` [Example 113, N-cyclopentyl-4-fluoro-1-[[4-(methylcarbamoyl)phenyl]methyl]indole-3-carboxamide], the EC50 turned out to be 77 nM in data set [3] and 34 nM in data set [4].

As to `Cn1cc(-c2ccc(Cn3cc(C(=O)N[C@H]4CCCC[C@@H]4O)c4c(F)c(F)c(F)c(F)c43)c(F)c2)cn1` [Example 26, 4,5,6,7-Tetrafluoro-1-(2-fluoro-4-(1-methyl-1H-pyrazol-4-yl)benzyl)-N-((1S,2S)-2-hydroxycyclohexyl)-1H-indole-3-carboxamide], the EC50 in data set [3] is 201 nM; in data set [4] it was 80.6 nM.

In the case of `CCc1ccc(F)c2c(C(=O)NC3CCOCC3)cn(Cc3ccc(-c4cnn(C)c4)cc3)c12` [Example 108, 7-ethyl-4-fluoro-1-(4-(1-methyl-1H-pyrazol-4-yl)benzyl)-N-(tetrahydro-2H-pyran-4-yl)-1H-indole-3-carboxamide], the values for the EC50 in data set [3] and in data set [4] were 952 nM and 414 nM, respectively.

The record behind these values is US9708259B2 (Hoffmann-La Roche Inc., priority 2013, dated 2017).
